Data published in article PMC8110684, “Effects of Bacillus subtilis iturin A on HepG2 cells in vitro and vivo” (AMB Express, 2021).
Like-named read-outs stand apart in the source and are kept apart here. Where a SMILES comes first, the peptide text is derived from it.

Assays:
[1] = Effect of treatment on mice health (weight, serum biochemistry, necropsy, histopathology); format: in vivo, BALB/c nude mice; settings: 3 mg/kg per day
Experimental: During the 15-day trial, the weight and food intake of mice were recorded daily.
At euthanasia, blood was collected after the animals had been fasted overnight. Blood samples were collected from both control and test groups via cardiac puncture under ketamine anesthesia. All blood samples were then subjected to clinical analysis of aspartate aminotransferase (AST), alanine aminotransferase (ALT), and creatinine (SCr).
Mice were examined for gross lesions. Tissues and organs of interest were retained. The liver, kidneys, and spleen of all mice were weighed soon after dissection and then preserved in 4% paraformaldehyde for histopathological examination (Turki et al. [2010]). Histopathological assessments were performed to evaluate viscera retained from both control and treated animals. Viscera of interest were trimmed, processed, embedded in paraffin, sectioned, and stained with H&E before their microscopic examination.

HepG2 cells [2] = system: HepG2 cells
Experimental: (§1) The purified CFNSE-iturin A was dissolved in cell culture medium and incubated with HepG2 cells for 10 min, and then observed under a fluorescence microscope and photographed. The control group was cells incubated with CFNSE for the same time.

HepG2 cells [3] = assay: Capability to enter cells (CFNSE label, fluorescence microscopy); settings: dissolved in cell culture medium, incubated with HepG2 for 10 min, fluorescence microscope
Experimental: as §1

| entry into HepG2 cells (cell fluorescence) (HepG2 cells [3]) | Compound | kidney histopathology (H&E) ([1]; 15 days) | liver histopathology (H&E) ([1]; 15 days) | spleen histopathology (H&E) ([1]; 15 days) | body weight versus control group ([1]; 15 days, n = 6) | weight and viscera indexes of liver, spleen and kidney versus control ([1]; 15 days, n = 6) | serum ALT versus control ([1]; end of administration, n = 6) | serum AST versus control ([1]; end of administration, n = 6) | serum creatinine (SCr) versus control ([1]; end of administration, n = 6) | entry into HepG2 cells (cell fluorescence) (HepG2 cells [2]) |
| --- | --- | --- | --- | --- | --- | --- | --- | --- | --- | --- |
| – | CCCCCCCCCCCC1CC(=O)N[C@@H](CC(N)=O)C(=O)N[C@H](Cc2ccc(O)cc2)C(=O)N[C@H](CC(N)=O)C(=O)N[C@@H](CCC(N)=O)C(=O)N2CCC[C@H]2C(=O)N[C@H](CC(N)=O)C(=O)N[C@@H](CO)C(=O)N1 (stereo partly shown) [iturin A] (HELM PEPTIDE1{N.[dY].[dN].Q.P.[dN].S.[CCCCCCCCCCCC(CC(=O)[*:2])N[*:1]]}$PEPTIDE1,PEPTIDE1,1:R1-8:R2$$$V2.0) | no necrotic cells or cell swelling was found | no hepatocyte swelling, necrosis, inflammatory cell infiltration, or other phenomena were observed | orderly arrangement of cells without necrosis | no significant difference | No significant differences | increased significantly | increased significantly | no significant difference | could enter HepG2 cells within very short time |
| could not enter the cells | 5(6)-Carboxy fluorescein N-succinimidyl ester [CFNSE] | – | – | – | – | – | – | – | – | – |
